According to US20240109903A1, “SUBSTITUTED HETEROCYCLES FOR TREATING CANCER” (Northwestern University, priority 2022, published 2024):

What was measured:
Format in all cases: cell-based
HL-60(TB) = assay: NCI 60 five-dose screen HL-60(TB); details: Homo sapiens, five-dose
K-562 = assay: NCI 60 five-dose screen K-562; details: Homo sapiens, K562, five-dose
A549/ATCC = assay: NCI 60 five-dose screen A549/ATCC; details: Homo sapiens, five-dose
HOP-62 = assay: NCI 60 five-dose screen HOP-62; details: Homo sapiens, five-dose
HOP-92 = assay: NCI 60 five-dose screen HOP-92; details: Homo sapiens, five-dose
NCI-H226 = assay: NCI 60 five-dose screen NCI-H226; details: Homo sapiens, five-dose
NCI-H322M = assay: NCI 60 five-dose screen NCI-H322M; details: Homo sapiens, five-dose
COLO 205 = assay: NCI 60 five-dose screen COLO 205; details: Homo sapiens, five-dose
HCC-2998 = assay: NCI 60 five-dose screen HCC-2998; details: Homo sapiens, five-dose
KM12 = assay: NCI 60 five-dose screen KM12; details: Homo sapiens, five-dose
SF-268 = assay: NCI 60 five-dose screen SF-268; details: Homo sapiens, five-dose
SNB-75 = assay: NCI 60 five-dose screen SNB-75; details: Homo sapiens, five-dose
U251 = assay: NCI 60 five-dose screen U251; details: Homo sapiens, U-251, five-dose
LOX IMVI = assay: NCI 60 five-dose screen LOX IMVI; details: Homo sapiens, five-dose
SK-MEL-28 = assay: NCI 60 five-dose screen SK-MEL-28; details: Homo sapiens, five-dose
SK-MEL-5 = assay: NCI 60 five-dose screen SK-MEL-5; details: Homo sapiens, five-dose
UACC-257 = assay: NCI 60 five-dose screen UACC-257; details: Homo sapiens, five-dose
OVCAR-3 = assay: NCI 60 five-dose screen OVCAR-3; details: Homo sapiens, five-dose
OVCAR-5 = assay: NCI 60 five-dose screen OVCAR-5; details: Homo sapiens, five-dose
OVCAR-8 = assay: NCI 60 five-dose screen OVCAR-8; details: Homo sapiens, five-dose
NCI/ADR-RES = assay: NCI 60 five-dose screen NCI/ADR-RES; details: Homo sapiens, five-dose
A498 = assay: NCI 60 five-dose screen A498; details: Homo sapiens, five-dose
TK-10 = assay: NCI 60 five-dose screen TK-10; details: Homo sapiens, five-dose
UO-31 = assay: NCI 60 five-dose screen UO-31; details: Homo sapiens, five-dose
DU-145 = assay: NCI 60 five-dose screen DU-145; details: Homo sapiens, five-dose
HS 578T = assay: NCI 60 five-dose screen HS 578T; details: Homo sapiens, five-dose
T-47D = assay: NCI 60 five-dose screen T-47D; details: Homo sapiens, T47D, five-dose
MDA-MB-468 = assay: NCI 60 five-dose screen MDA-MB-468; details: Homo sapiens, five-dose
[1] = read-out: LC50 (the source's name) (converted)
[2] = read-out: LC50 (the source's name)

FC(F)(F)CN1CCN(CCn2c(C(F)(F)F)cc3c(Cl)ncnc32)CC1 [NUCC-0226683]
GI50 (HL-60(TB)): 2.75 µM | IC50 (HL-60(TB)): 5.75 µM | IC (TGI) (HL-60(TB)): 8.13 µM | CC50 (HL-60(TB); [1]): ≥ 100 µM | GI50 (K-562): 2.82 µM | IC50 (K-562): 3.47 µM | IC (TGI) (K-562): 100 µM | CC50 (K-562; [2]): ≥ 100 µM | GI50 (A549/ATCC): 52.5 µM | IC50 (A549/ATCC): 89.1 µM | IC (TGI) (A549/ATCC): 100 µM | CC50 (A549/ATCC; [1]): ≥ 100 µM | GI50 (HOP-62): 13.8 µM | IC50 (HOP-62): 28.8 µM | IC (TGI) (HOP-62): 32.4 µM | CC50 (HOP-62; [1]): 75.9 µM | GI50 (HOP-92): 12.9 µM | IC50 (HOP-92): 32.4 µM | IC (TGI) (HOP-92): 29.5 µM | CC50 (HOP-92; [1]): 66.1 µM | GI50 (NCI-H226): 17.4 µM | IC50 (NCI-H226): 100 µM | IC (TGI) (NCI-H226): 72.4 µM | CC50 (NCI-H226; [1]): ≥ 100 µM | GI50 (NCI-H322M): 5.5 µM | IC50 (NCI-H322M): 15.8 µM | IC (TGI) (NCI-H322M): 19.1 µM | CC50 (NCI-H322M; [1]): 44.7 µM | GI50 (COLO 205): 18.6 µM | IC50 (COLO 205): 33.9 µM | IC (TGI) (COLO 205): 45.7 µM | CC50 (COLO 205; [1]): ≥ 100 µM | GI50 (HCC-2998): 1.82 µM | IC50 (HCC-2998): 3.24 µM | IC (TGI) (HCC-2998): 3.31 µM | CC50 (HCC-2998; [1]): 5.89 µM | GI50 (KM12): 17.8 µM | IC50 (KM12): 30.2 µM | IC (TGI) (KM12): 39.8 µM | CC50 (KM12; [1]): 89.1 µM | GI50 (SF-268): 5.25 µM | IC50 (SF-268): 11.5 µM | IC (TGI) (SF-268): 21.4 µM | CC50 (SF-268; [1]): 70.8 µM | GI50 (SNB-75): 3.09 µM | IC50 (SNB-75): 14.8 µM | IC (TGI) (SNB-75): 14.1 µM | CC50 (SNB-75; [1]): 38.9 µM | GI50 (U251): 2.4 µM | IC50 (U251): 3.63 µM | IC (TGI) (U251): 6.46 µM | CC50 (U251; [1]): 24 µM | GI50 (LOX IMVI): 1.66 µM | IC50 (LOX IMVI): 2.95 µM | IC (TGI) (LOX IMVI): 3.09 µM | CC50 (LOX IMVI; [1]): 5.75 µM | GI50 (SK-MEL-28): 8.13 µM | IC50 (SK-MEL-28): 16.6 µM | IC (TGI) (SK-MEL-28): 37.2 µM | CC50 (SK-MEL-28; [1]): ≥ 100 µM | GI50 (SK-MEL-5): 3.72 µM | IC50 (SK-MEL-5): 6.17 µM | IC (TGI) (SK-MEL-5): 13.8 µM | CC50 (SK-MEL-5; [1]): 37.2 µM | GI50 (UACC-257): 4.07 µM | IC50 (UACC-257): 11 µM | IC (TGI) (UACC-257): 17 µM | CC50 (UACC-257; [1]): 57.5 µM | GI50 (OVCAR-3): 14.5 µM | IC50 (OVCAR-3): 28.8 µM | IC (TGI) (OVCAR-3): 34.7 µM | CC50 (OVCAR-3; [1]): 83.2 µM | GI50 (OVCAR-5): 100 µM | IC50 (OVCAR-5): 100 µM | IC (TGI) (OVCAR-5): 100 µM | CC50 (OVCAR-5; [1]): ≥ 100 µM | GI50 (OVCAR-8): 3.24 µM | IC50 (OVCAR-8): 4.47 µM | IC (TGI) (OVCAR-8): 11.7 µM | CC50 (OVCAR-8; [1]): 40.7 µM | GI50 (NCI/ADR-RES): 19.1 µM | IC50 (NCI/ADR-RES): 35.5 µM | IC (TGI) (NCI/ADR-RES): 46.8 µM | CC50 (NCI/ADR-RES; [1]): ≥ 100 µM | GI50 (A498): 21.4 µM | IC50 (A498): 100 µM | IC (TGI) (A498): 57.5 µM | CC50 (A498; [1]): ≥ 100 µM | GI50 (TK-10): 35.5 µM | IC50 (TK-10): 100 µM | IC (TGI) (TK-10): 100 µM | CC50 (TK-10; [1]): ≥ 100 µM | GI50 (UO-31): 1.62 µM | IC50 (UO-31): 3.02 µM | IC (TGI) (UO-31): 3.24 µM | CC50 (UO-31; [1]): 6.61 µM | GI50 (DU-145): 12.6 µM | IC50 (DU-145): 22.4 µM | IC (TGI) (DU-145): 33.1 µM | CC50 (DU-145; [1]): 87.1 µM | GI50 (HS 578T): 14.1 µM | IC50 (HS 578T): 100 µM | IC (TGI) (HS 578T): 60.3 µM | CC50 (HS 578T; [2]): ≥ 100 µM | GI50 (T-47D): 17.4 µM | IC50 (T-47D): 49 µM | IC (TGI) (T-47D): 63.1 µM | CC50 (T-47D; [2]): ≥ 100 µM | GI50 (MDA-MB-468): 2.19 µM | IC50 (MDA-MB-468): 6.03 µM | IC (TGI) (MDA-MB-468): 4.9 µM | CC50 (MDA-MB-468; [1]): 14.1 µM
